Several values for one entry are separate records, joined by “and”; a condition that tells them apart may be missing. Identical values can stand only once.
Tests used:
Assay in all cases: Competitive isoTOP-ABPP, cell lysates
Format in all cases: binding
ACAT1 C119 (P24752) = molecular target: T1, ACAT1 C119 (P24752) (Homo sapiens, UniProt P24752); settings: for R value (DMSO/fragment) / isoTOP-ABPP ratio P24752_C119: 500 μM
T1 sequence (P24752 34-427): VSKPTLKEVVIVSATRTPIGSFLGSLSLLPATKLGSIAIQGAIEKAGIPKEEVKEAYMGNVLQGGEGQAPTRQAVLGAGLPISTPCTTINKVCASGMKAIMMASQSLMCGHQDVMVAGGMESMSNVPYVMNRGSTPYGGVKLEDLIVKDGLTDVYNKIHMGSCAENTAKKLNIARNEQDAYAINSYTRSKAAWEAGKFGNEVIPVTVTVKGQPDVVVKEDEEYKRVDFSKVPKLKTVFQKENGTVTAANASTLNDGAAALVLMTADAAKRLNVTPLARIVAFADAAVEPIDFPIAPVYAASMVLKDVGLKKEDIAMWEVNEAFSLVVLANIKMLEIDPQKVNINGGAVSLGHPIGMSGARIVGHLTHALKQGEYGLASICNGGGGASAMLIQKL

USP28 C171 (Q96RU2) = molecular target: T2, USP28 C171 (Q96RU2) (Homo sapiens, UniProt Q96RU2); settings: for isoTOP-ABPP ratio, Q96RU2_C171: 231
T2 sequence (Q96RU2 1-1077): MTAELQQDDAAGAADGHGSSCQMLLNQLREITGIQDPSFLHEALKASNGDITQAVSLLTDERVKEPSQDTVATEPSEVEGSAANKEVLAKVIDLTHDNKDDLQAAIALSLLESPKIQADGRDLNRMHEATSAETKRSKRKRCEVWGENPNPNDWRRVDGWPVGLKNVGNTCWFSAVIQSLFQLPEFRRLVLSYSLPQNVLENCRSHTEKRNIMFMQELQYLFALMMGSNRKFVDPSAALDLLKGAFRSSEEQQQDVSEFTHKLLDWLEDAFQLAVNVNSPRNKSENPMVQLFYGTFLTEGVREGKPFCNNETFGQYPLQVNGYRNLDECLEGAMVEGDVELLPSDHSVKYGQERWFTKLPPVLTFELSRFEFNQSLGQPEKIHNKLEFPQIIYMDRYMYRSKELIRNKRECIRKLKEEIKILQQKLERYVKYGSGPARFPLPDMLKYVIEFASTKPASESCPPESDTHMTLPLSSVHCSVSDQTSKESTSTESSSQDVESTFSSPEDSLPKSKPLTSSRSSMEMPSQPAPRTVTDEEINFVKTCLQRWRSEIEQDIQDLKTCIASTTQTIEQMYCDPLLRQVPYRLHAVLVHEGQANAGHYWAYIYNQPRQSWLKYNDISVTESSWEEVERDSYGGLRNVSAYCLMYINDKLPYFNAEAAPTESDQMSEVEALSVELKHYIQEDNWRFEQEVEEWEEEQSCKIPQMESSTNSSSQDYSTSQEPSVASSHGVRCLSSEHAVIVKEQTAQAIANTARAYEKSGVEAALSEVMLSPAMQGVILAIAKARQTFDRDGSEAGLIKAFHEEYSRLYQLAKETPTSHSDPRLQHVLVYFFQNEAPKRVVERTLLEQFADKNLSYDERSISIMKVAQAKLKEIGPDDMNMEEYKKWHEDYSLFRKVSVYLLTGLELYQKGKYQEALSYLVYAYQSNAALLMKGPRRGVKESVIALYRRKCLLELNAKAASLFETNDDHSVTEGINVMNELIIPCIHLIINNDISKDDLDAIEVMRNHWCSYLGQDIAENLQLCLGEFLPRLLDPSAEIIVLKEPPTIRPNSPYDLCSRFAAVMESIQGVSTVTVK

MLTK C22 (Q9NYL2) = MLTK C22 (Q9NYL2) (Homo sapiens, UniProt Q9NYL2); settings: for isoTOP-ABPP ratio (reactivity profile), Q9NYL2_C22: 500 μm in-vitro ramos_231
MLTK C22 (Q9NYL2), sequence (Q9NYL2 whole entry): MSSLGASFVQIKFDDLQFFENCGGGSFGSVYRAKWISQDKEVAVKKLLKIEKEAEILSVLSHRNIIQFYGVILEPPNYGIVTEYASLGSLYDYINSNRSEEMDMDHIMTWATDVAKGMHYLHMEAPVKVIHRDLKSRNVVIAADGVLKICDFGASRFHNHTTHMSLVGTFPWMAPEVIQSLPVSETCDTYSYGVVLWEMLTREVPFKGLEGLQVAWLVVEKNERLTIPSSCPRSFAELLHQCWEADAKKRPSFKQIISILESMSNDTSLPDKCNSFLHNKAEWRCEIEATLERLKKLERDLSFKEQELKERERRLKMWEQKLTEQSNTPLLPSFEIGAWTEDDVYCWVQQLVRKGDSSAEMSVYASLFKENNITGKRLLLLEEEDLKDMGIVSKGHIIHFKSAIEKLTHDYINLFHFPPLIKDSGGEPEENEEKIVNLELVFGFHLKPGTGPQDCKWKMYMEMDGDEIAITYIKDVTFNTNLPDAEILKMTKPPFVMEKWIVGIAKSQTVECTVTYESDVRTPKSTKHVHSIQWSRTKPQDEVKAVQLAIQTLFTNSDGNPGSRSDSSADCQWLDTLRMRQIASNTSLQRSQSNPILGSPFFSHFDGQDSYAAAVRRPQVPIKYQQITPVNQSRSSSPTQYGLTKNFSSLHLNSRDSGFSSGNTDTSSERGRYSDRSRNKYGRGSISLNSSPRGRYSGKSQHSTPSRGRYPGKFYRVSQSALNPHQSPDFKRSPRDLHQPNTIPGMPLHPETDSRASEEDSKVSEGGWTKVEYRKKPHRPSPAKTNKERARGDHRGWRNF

EZH2 C503 (Q15910) = EZH2 C503 (Q15910) (Homo sapiens, UniProt Q15910)
EZH2 C503 (Q15910), sequence (Q15910 whole entry): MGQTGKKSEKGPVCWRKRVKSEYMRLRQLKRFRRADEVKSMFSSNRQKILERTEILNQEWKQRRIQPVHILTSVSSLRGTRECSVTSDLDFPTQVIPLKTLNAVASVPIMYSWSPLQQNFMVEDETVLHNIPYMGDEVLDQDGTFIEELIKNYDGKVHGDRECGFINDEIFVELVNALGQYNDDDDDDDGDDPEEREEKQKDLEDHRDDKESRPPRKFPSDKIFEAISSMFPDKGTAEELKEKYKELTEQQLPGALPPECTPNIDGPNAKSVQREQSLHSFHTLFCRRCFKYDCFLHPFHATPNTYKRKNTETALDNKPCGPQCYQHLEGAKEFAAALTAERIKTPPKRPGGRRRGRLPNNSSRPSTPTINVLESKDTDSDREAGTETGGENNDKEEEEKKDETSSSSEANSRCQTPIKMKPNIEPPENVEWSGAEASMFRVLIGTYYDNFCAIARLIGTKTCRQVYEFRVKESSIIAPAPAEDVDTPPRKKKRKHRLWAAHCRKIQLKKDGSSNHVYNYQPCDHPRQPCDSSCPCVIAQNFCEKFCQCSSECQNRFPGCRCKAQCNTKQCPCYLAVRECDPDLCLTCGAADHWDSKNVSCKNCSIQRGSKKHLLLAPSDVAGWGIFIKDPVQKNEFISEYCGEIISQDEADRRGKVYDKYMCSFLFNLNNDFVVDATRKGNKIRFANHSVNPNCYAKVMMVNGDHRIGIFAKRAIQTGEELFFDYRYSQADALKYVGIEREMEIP
EZH2 C503 (Q15910), sequence (O75530 whole entry partner): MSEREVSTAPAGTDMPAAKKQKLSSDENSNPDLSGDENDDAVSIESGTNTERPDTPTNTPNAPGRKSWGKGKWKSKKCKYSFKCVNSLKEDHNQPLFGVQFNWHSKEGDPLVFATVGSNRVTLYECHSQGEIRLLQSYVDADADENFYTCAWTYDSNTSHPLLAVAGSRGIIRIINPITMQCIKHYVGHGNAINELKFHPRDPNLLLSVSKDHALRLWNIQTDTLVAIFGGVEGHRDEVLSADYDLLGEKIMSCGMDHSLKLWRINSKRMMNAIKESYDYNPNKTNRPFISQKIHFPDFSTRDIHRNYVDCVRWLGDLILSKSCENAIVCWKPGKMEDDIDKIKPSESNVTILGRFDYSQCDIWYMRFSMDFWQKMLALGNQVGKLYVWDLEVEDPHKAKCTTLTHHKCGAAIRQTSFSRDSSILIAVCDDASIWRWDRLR
EZH2 C503 (Q15910), sequence (Q15022 whole entry partner): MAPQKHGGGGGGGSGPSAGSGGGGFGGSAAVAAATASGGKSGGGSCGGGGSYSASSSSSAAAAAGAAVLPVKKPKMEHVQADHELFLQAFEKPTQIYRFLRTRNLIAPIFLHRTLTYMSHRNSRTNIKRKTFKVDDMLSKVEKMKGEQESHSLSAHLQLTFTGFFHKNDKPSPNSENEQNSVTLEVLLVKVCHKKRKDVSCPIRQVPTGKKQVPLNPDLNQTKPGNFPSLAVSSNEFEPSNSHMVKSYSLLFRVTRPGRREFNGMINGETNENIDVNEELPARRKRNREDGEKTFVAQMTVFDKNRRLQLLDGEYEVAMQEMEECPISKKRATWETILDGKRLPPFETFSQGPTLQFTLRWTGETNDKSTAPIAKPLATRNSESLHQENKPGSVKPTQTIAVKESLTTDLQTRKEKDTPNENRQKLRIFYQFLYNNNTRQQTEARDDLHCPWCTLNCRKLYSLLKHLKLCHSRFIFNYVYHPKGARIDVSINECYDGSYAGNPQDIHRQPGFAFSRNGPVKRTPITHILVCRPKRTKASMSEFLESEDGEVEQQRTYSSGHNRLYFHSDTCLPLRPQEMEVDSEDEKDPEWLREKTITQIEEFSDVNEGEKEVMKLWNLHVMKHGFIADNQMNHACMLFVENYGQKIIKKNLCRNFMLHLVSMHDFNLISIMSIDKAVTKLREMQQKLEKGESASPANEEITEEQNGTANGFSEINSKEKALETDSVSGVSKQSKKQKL

CASP8 C360 (Q14790) = CASP8 C360 (Q14790) (Homo sapiens, UniProt Q14790); settings: for isoTOP-ABPP ratio Q14790_C360: invitro
CASP8 C360 (Q14790), sequence (Q14790 whole entry): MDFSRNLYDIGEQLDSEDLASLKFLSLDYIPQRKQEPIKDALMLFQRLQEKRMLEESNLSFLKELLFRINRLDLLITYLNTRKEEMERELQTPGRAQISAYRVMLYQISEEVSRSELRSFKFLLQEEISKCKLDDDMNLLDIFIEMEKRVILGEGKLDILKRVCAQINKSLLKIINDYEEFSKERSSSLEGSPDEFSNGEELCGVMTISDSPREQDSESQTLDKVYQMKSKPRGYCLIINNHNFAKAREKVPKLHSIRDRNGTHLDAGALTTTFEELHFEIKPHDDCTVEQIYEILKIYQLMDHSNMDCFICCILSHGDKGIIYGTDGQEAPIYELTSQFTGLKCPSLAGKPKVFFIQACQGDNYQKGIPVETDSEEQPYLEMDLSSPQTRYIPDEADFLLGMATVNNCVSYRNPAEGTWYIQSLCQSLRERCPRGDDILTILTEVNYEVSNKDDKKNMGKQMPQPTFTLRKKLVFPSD

With `C=CC(=O)N(c1ccccc1)C1CCCCC1` [compound 46] the “isoTOP-ABPP reactivity profile ratio, P24752_C119” value (ACAT1 C119 (P24752); 500 μm, in-vitro_ramos_231) was 0.8 and the “isoTOP-ABPP reactivity profile ratio, Q96RU2_C171” value (USP28 C171 (Q96RU2); 500 μm, in-vitro_ramos_231) was 0.9.

`COc1ccc2c(c1)CCCN2C(=O)CCl` [compound 2] was tested, and the “R value (DMSO/fragment)” value (ACAT1 C119 (P24752); in vitro, MDA-MB-231) was 3.9, the “R value (DMSO/fragment)” value (ACAT1 C119 (P24752); invitro, ramos) was 3.2 and the “R value (DMSO/fragment)” value (USP28 C171 (Q96RU2); 500 μM, invitro, ramos) was 1.1. The “R value (DMSO/fragment)” value (MLTK C22 (Q9NYL2); 500 μM, in vitro, MDA-MB-231) was 20.0, the “R value (DMSO/fragment)” value (EZH2 C503 (Q15910); 500 μM, invitro, ramos) was 2.8 and the “R value (DMSO/fragment)” value (CASP8 C360 (Q14790); 500 μM, in vitro, MDA-MB-231) was 9.8.

With `CNS(=O)(=O)C=Cc1ccc2c(ccn2Cc2ccccc2)c1` [compound 6] the “isoTOP-ABPP ratio P24752_C119” value (ACAT1 C119 (P24752); invitro, 231) was 1.1, the “isoTOP-ABPP ratio, Q96RU2_C171” value (USP28 C171 (Q96RU2); 500 μM, invitro) was 0.8 and the “isoTOP-ABPP ratio, Q15910_C503” value (EZH2 C503 (Q15910); 500 μM, invitro, 231) was 1.8.

`CC(Cl)C(=O)Nc1cc(C(F)(F)F)cc(C(F)(F)F)c1` (stereo not shown) [compound 25] was tested, and the “isoTOP-ABPP ratio (reactivity profile), P24752_C119” value (ACAT1 C119 (P24752); 500 μm in-vitro ramos_231) was 1.0, the “isoTOP-ABPP ratio (reactivity profile), Q9NYL2_C22” value (from here on “isoTOP-ABPP ratio … Q9NYL2_C22”) (MLTK C22 (Q9NYL2)) was 0.8 and the “isoTOP-ABPP ratio (reactivity profile), Q15910_C503” value (EZH2 C503 (Q15910); 500 μm in-vitro ramos_231) was 0.8. The “isoTOP-ABPP ratio (reactivity profile), Q14790_C360” value (CASP8 C360 (Q14790); 500 μm in-vitro ramos_231) was 1.0.

In the case of `N#C/C(=C\c1cc(C(F)(F)F)cc(C(F)(F)F)c1)C(N)=O` [compound 23], the “isoTOP-ABPP ratio (reactivity profile), P24752_C119” value (ACAT1 C119 (P24752); 500 μm in-vitro ramos) is reported as 2.0, the “isoTOP-ABPP ratio (reactivity profile), P24752_C119” value (ACAT1 C119 (P24752); 500 μm in-vitro ramos_231) is reported as 1.7 and the “isoTOP-ABPP ratio (reactivity profile), Q96RU2_C171” value (USP28 C171 (Q96RU2); 500 μm in-vitro ramos) is reported as 1.2. For the same compound, the “isoTOP-ABPP ratio … Q9NYL2_C22” value (MLTK C22 (Q9NYL2)) was 1.4, the “isoTOP-ABPP ratio (reactivity profile), Q15910_C503” value (EZH2 C503 (Q15910); 500 μm in-vitro ramos) was 2.0 and the “isoTOP-ABPP ratio (reactivity profile), Q14790_C360” value (CASP8 C360 (Q14790); 500 μm in-vitro ramos) was 1.4. For the same compound, the “isoTOP-ABPP ratio (reactivity profile), Q14790_C360” value (CASP8 C360 (Q14790); 500 μm in-vitro ramos_231) was 1.4.

`CC(C)CCOCCNC(=O)CCl` [compound 27] was tested, and the “isoTOP-ABPP ratio (reactivity profile), P24752_C119” value (ACAT1 C119 (P24752); 500 μm in-vitro ramos) was 1.0, the “isoTOP-ABPP ratio (reactivity profile), P24752_C119” value (ACAT1 C119 (P24752); 500 μm in-vitro ramos_231) was 0.9 and 1.0 and the “isoTOP-ABPP ratio (reactivity profile), Q96RU2_C171” value (USP28 C171 (Q96RU2); 500 μm in-vitro ramos_231) was 0.9 and 1.2. The “isoTOP-ABPP ratio … Q9NYL2_C22” value (MLTK C22 (Q9NYL2)) was 1.1, the “isoTOP-ABPP ratio (reactivity profile), Q14790_C360” value (CASP8 C360 (Q14790); 500 μm in-vitro ramos) was 1.2 and the “isoTOP-ABPP ratio (reactivity profile), Q14790_C360” value (CASP8 C360 (Q14790); 500 μm in-vitro ramos_231) was 0.8.

In the case of `O=C(CCl)N1CCN(S(=O)(=O)c2ccccc2F)CC1` [compound 10], the “isoTOP-ABPP ratio P24752_C119” value (ACAT1 C119 (P24752); invitro, 231) is reported as 1.5, the “isoTOP-ABPP ratio P24752_C119” value (ACAT1 C119 (P24752); invitro, ramos) is reported as 1.4 and the “isoTOP-ABPP ratio, Q96RU2_C171” value (USP28 C171 (Q96RU2); 500 μM, invitro) is reported as 1.4. For the same compound, the “isoTOP-ABPP ratio Q14790_C360” value (CASP8 C360 (Q14790); 500 μM, 231) was 2.8 and the “isoTOP-ABPP ratio Q14790_C360” value (CASP8 C360 (Q14790); 500 μM, ramos) was 1.5.

With `O=C(CCl)N1CCN(CC(=O)N2CCOCC2)CC1` [compound 29] the “isoTOP-ABPP ratio (reactivity profile), P24752_C119” value (ACAT1 C119 (P24752); 500 μm in-vitro ramos) was 0.6, the “isoTOP-ABPP ratio (reactivity profile), P24752_C119” value (ACAT1 C119 (P24752); 500 μm in-vitro ramos_231) was 1.3 and the “isoTOP-ABPP ratio … Q9NYL2_C22” value (MLTK C22 (Q9NYL2)) was 1.2. For the same compound, the “isoTOP-ABPP ratio (reactivity profile), Q15910_C503” value (EZH2 C503 (Q15910); 500 μm in-vitro ramos_231) was 1.4.
